The values that follow come from patent US4542153A, “Methods for changing calcium metabolism within the cells of a mammal” (The Ohio State University Research Foundation, priority 1983, dated 1985).

The subject of data set [1] is thoracic aorta strips contracted with norepinephrine. The data set can be described thus: Vasodilator activity: norepinephrine-contracted aortic strips. Particulars: for relaxation of the aortic tissue: norepinephrine- or KCl-treated tissue; for comparative vasodilator activity, norepinephrine-treated tissue: norepinephrine-treated aortic tissue; for IC50: read-out: IC50 (mean and range of SEM) Norepinephrine. The class given is cell-based, male Sprague-Dawley rats. From the text: (§1) Pr-MDI, bu-MDI, Q-bu-MDI and the compounds of Formulae IIIA, IIIB and IVA having the two R1 groups together forming a methylene group, each R3 a methyl group and R2 an n-propyl group or n-butyl group (the compounds of Formula III are hereinafter abbreviated as sat-pr-MDI and sat-bu-MDI respectively, reference being made where necessary to the cis isomer of Formula III A or the trans isomer of Formula III B while the compounds of Formula IV are similarly referred to as cis sat-Q-pr-MDI and cis sat-Q-bu-MDI) were tested for vasodilator activity by the method of R. F. Furchgott and S. Bhadrakom, J. P. Pharmacol. Ex. Ther., 108, 129-143 (1953).
(§2) The vasodilator activity tests were conducted on male Sprague-Dawley rats, obtained from Harlan Industries, Inc., Cumberland, Indiana. The rats, weight 250-300 g., were sacrified by cervical dislocation and a 2.5 cm. segment of the thoracic aorta was removed and rinshed in physiological buffer. Each aortic segment was cleaned of connective tissue and cut spirally two yield to strips, each 3 by 15 mm. Each strip was mounted isometrically under a tension of 1 g in a 10 ml. tissue bath thermostatically maintained at 37° C. and containing a normal physiological solution aerated with a 95% oxygen/5% carbon dioxide mixture. Forces generated by the strip were monitored using a Grass FT03 isometric transducer coupled to a Grass module 7D polygraph recorder, both the transducer and the recorder being obtained from Grass Instrument Co., of Quincy, Mass.
(§3) After the aortic tissue had been allowed to equilibriate for 1-1.5 hours in the normal physiologic solution, tissue contraction was induced by introducing either 10^-7 M norepinephrine or 40mM potassium chloride buffer to the tissue bath.
(§4) To avoid interference by loss of tension due to time dependent tissue fatigue, separate preliminary experiments were performed to determine the degree of tissue relaxation due to such fatigue and the value of the control tension generated by norepinephrine or potassium chloride prior to the addition of the test compounds was adjusted whenever the duration of the experiment was such that fatigue could be expected to cause more than a 6% loss of tension. […] All concentrations mentioned hereinafter represent the final concentration of the test compound after dilution in the tissue bath.
(§5) The figures of concentration against percent response data obtained from each aortic tissue were transformed to its appropriate probit value and IC50 values were then estimated using linear regression analysis. The normal physiological solution contained 6.9 g/l of sodium chloride, 0.35 g/l of potassium chloride, 0.11 g/l of magnesium chloride hexahydrate, 0.138 g/l of sodium dihydrogen phosphate, 2.1 g/l of sodium bicarbonate, 0.01 g/l of EDTA, 0.368 g/l of calcium chloride dihydrate and 2.0 g/l of dextrose. The high potassium buffers were obtained by substituting potassium chloride for sodium chloride on an equimolar basis to maintain tonicity.

In data set [2] the test system is thoracic aorta strips contracted with potassium chloride. The data set can be described thus: Vasodilator activity: potassium chloride-contracted aortic strips. The format is cell-based, male Sprague-Dawley rats. Particulars: for IC50: read-out: IC50 (mean and range of SEM) KCl; for comparative vasodilator activity, potassium chloride-treated tissue: KCl-treated aortic tissue.
Source text: as §1, §2, §3, §4, §5

For data set [3], the system named is calcium-induced arrhythmias in rats. The data set can be described thus: Calcium-induced arrhythmias (CaCl2 injected i.v. into anesthetized rats). The text has this:
The experimental method used was that described in Lynch J. J., Rahwan R. G., Witiak D. T.: Effects of 2-substituted-3-dimethylamino-5,6-methylenedioxyindenes on calcium-inducedarrhythmias, J. Cardiovasc. Pharmacol. 3: 49-60 (1981). Male Sprague-Dawley rats weighing 180-250 grams were anesthetized with sodium pentobarbital and a cannula was inserted into the left jugular vein for drug administration. Electrocardiograph equipment was connected to the rat and the lead II was continuously monitored. The compound under test, dissolved in 5% dextrose solution, was administered into the jugular vein of anesthetized rats over a 40 second period. Ten minutes after this treatment, an acute dose of 1 ml/kg of a 10% CaCl2.2H2 O solution was injected into the jugular vein over a period of 10 seconds. The arrhythmias resulting from the calcium administration were graded according to the following criteria: (a) initial change in heart rate following calcium administration; (b) incidences of sinoatrial block, atrioventricular block, ectopic beats, and ventricular flutter and fibrillation; (c) time required for reversion to control ECG; and (d) incidence of mortality.

Data set [4] has as its system chloroform anoxia arrhythmia in mice. As to the kind of experiment: Chloroform Anoxia Assay (chloroform-induced ventricular fibrillation). The class given is in vivo, Female Swiss albino mice. Particulars: for ED50: i.p., 10 min before chloroform, table: mean values and 95% confidence limits. The procedure:
The same four compounds were tested for their ability to protect mice from chloroform anoxia by the classical chloroform inhalation procedure described in Lawson J. W.: Antiarrhythmic activity of some isoquinoline derivatives determined by a rapid screening procedure in the mouse, J. Pharmacol. Exp. Ther. 160: 22-31, (1968). In this method, chloroform inhalation leading to respiratory arrest produces ventricular fibrillation. Female Swiss albino mice procured from Laboratory Supply Company, Indianapolis, Indiana, weighing 16-22 g, were pretreated intraperitoneally with the compound under test dissolved in a 5% dextrose solution 10 minutes before exposure to chloroform in a closed container containing chloroform-saturated cotton. The mice were removed from the chloroform atmosphere immediately after respiratory arrest and the electrocardiograph lead II monitored. The ED 50 and 95% confidence limits calculated for the anti-arrhythmic agents by the standard method of Litchfield and Wilcoxon.

The test system of a further data set is isolated left atria. The data set can be described thus: Effects on isolated guinea pig atria: electrically driven left atria. The class given is cell-based. From the text:
The effects of pr-MDI, bu-MDI and Q-bu-MDI on the mechanical and electrical behavior of isolated guinea pig atria were investigated by the method of H. Nawrath, J. Pharmacol. Exp. Ther., 16, 176-182 (1980). The compounds were investigated over the concentration range of 10^-8 to 3×10^-4 M.
English short-haired guinea pigs, supplied by Carr Animal Supply, of Powell, Ohio, weighing 300-600 g. were killed by a blow on the head and both atria of the animal were quickly dissected out and suspended in a water-jacketed organ bath containing Krebs-Henseleit solution through which a 95% oxygen/5% carbon dioxide mixture was bubbled at 32° C. The solution contained 6.92 g/l of sodium chloride, 0.35 g/l of potassium chloride, 0.29 g/l of magnesium […] heptahydrate, 0.3 g/l of calcium chloride dihydrate, 0.16 g/l of potassium dihydrogen phosphate, 2.1 g/l of sodium bicarbonate and 2.1 g/l of dextrose. The contractile force generated by the isolated artria was recorded isometrically under a 500 mg. preload using a Narco Biosystems force transducer connected to a physiograph DMP-4B recorder, both the transducer and the recorder being obtained from E & M Instrument Co. of Houston, Texas.
The isolated left atria were electrically driven by square wave impulses of 3 milliseconds duration at a frequency of 3 Hz. and a voltage of twice the threshold voltage, delivered by a Grass S9 stimulator obtained from Grass Instrument Co., of Quincy, Massachusetts. Two platinum electrodes were used for the stimulation, the anode being in direct contact with the atrial tissue while the cathode had the form of a ring suspended 2.5 centimeters above the anode. Before redetermination of the threshold voltage and generation of a predrug (control) frequency-force profile over the range of 1-5 Hz., an equilibriation time of one hour was allowed. The system was then re-equilibriated at 3 Hz. and twice the threshold voltage as before, then one cumulative dose-response curve of contractile force for one test compound was obtained, followed immediately by redetermination of the threshold voltage and the generation of a post-drug frequency-force profile.
A paired Student's t-test was used to compare predrug and postdrug threshold voltages for each left atrial preparations as well as to compare developed tension at each frequency in the profile of each left atrial preparation. P values of less than 0.05 were considered statistically significant.

A further data set deals with mice. As to the kind of experiment: Toxicity Tests (intraperitoneal LD50). The format is in vivo. Particulars: i.p., table: mean values and 95% confidence limits.
For data set [5] the following is noted: tested acutely and subchronically; earlier published work; cited from earlier work.
[6] abbreviates: rat aorta contracted with 10^-7 M norepinephrine.
Where [7] appears, read: rat aorta contracted with 40 mM potassium chloride.

Structures are written as SMILES. Where two headings read alike, the source gives them in different places.

The term IC50 denotes the concentration that gives 50% inhibition. For `CCCC1=Cc2cc3c(cc2C1[N+](C)(C)C)OCO3.[I-]` (stereo not drawn) [Q-pr-MDI, 2-propyl-5,6-methylenedioxyindene-1-trimethylammonium iodide], in data set [1], the “relaxation of the aortic tissue” value was “relaxed the aortic tissue”. Also, the “comparative vasodilator activity, norepinephrine-treated tissue” value in data set [1] is reported as “less active in vitro than their tertiary analogs”. For the same compound, the half-inhibitory concentration (IC50) in data set [1] (setting [6]) was 382 µM; in data set [2] (setting [7]), 547 µM.
For `CCCC[C@@H]1Cc2cc3c(cc2[C@@H]1N(C)C)OCO3` (relative stereo) [cis sat-bu-MDI, 2-butyl-5,6-methylenedioxyindane-1-dimethylammonium chloride], the figures for the 50% inhibitory concentration (IC50) in data set [1] (Rattus norvegicus) and in data set [2] (Rattus norvegicus) were 37.9 µM and 17.4 µM, respectively. Moreover, the “comparative vasodilator activity, norepinephrine-treated tissue” value in data set [1] is on record as “greater activity on norepinephrine treated tissue than the corresponding butyl compound of Formula I”. Moreover, in data set [2], the “comparative vasodilator activity, potassium chloride-treated tissue” value was “substantially the same activity”.
Turning to `CCCC[C@@H]1Cc2cc3c(cc2[C@@H]1[N+](C)(C)C)OCO3` (relative stereo) [cis sat-Q-bu-MDI], the results for the IC50 in data set [1] (setting [6]) and in data set [2] (setting [7]) were 281 µM and 175 µM, respectively.
Take `CCCC[C@H]1Cc2cc3c(cc2[C@@H]1N(C)C)OCO3` (relative stereo) [trans sat-bu-MDI]: the 50% inhibitory concentration (IC50) is 151 to 173 µM in data set [1] (Rattus norvegicus) and 31.1 µM in data set [2] (Rattus norvegicus).
One may read the ED50 as the dose that gives a 50% effect, or the effect in half of the subjects. For orientation: LD50 means the dose at which mortality reaches 50%. Low values mean greater toxicity, high ones lower toxicity. With `CCCC1=Cc2cc3c(cc2C1N(C)C)OCO3.Cl` (stereo not drawn) [pr-MDI, 2-propyl-5,6-methylenedioxyindene-1-dimethylammonium chloride, reference compound], in data set [1], the “relaxation of the aortic tissue” value is given as “relaxed the aortic tissue”. In data set [1], the “comparative vasodilator activity, norepinephrine-treated tissue” value was “considerably more active than Q-pr-MDI”. Further, the 50% inhibitory concentration (IC50) in data set [1] (setting [6]) was 78.2 µM; in data set [2] (setting [7]) it was 21.4 µM. Also, the “potency and safety against calcium-induced arrhythmia versus verapamil” value in data set [3] (earlier work of applicants) was “more potent and safer then verapamil”. Besides, in data set [3] (i.v., 10 min before CaCl2), the “concentration effective against calcium-induced arrhythmias” value was found to be 3.75 mg/kg. For the same compound, the deleterious side effects entry in data set [3] (i.v., Q-bu-MDI at 0.5 mg/kg, pr-MDI and bu-MDI at 3.75 mg/kg) is given as “without deleterious side effects”. Besides, the “Therapeutic Index (LD50/ED50)” value in data set [4] (ED50 from chloroform anoxia, LD50 i.p.) was found to be 2.7. Further, the “potency against chloroform/anoxia-induced arrhythmia versus quinidine” value in data set [4] (earlier work of applicants) is given as “as potent as quinidine”. Also, the median effective dose (ED50) in data set [4] (n = 40, 10 min) is given as 68 mg/kg; in data set [4] (n = 40, listed as Pr--MDI, 10 min), 68.0 mg/kg. Besides, in data set [4] (quinidine = 1.00, chloroform anoxia), the “Antiarrhythmic Potency” value is 0.99. Also, in the data set with isolated left atria (3×10^-4 M), the “effect on frequency-force profile/relation of the stimulated left atrium” value is given as “virtually identical to that of the butyl homolog”. The “overall effect on mechanical and electrical behavior of atria” value with isolated left atria (10^-8 to 3×10^-4 M) is “generally similar to those of bu-MDI”. In the data set with mice, this compound registered a median lethal dose (LD50) of 185 mg/kg. For the same compound, the toxicity entry in data set [5] was “remarkable lack of toxicity”.
On to `CCC[C@@H]1Cc2cc3c(cc2[C@@H]1[N+](C)(C)C)OCO3` (relative stereo) [cis sat-Q-pr-MDI, cis-2-propyl-5,6-methylenedioxyindane-1-trimethylammonium iodide], for which the figures for the concentration for half-maximal inhibition (IC50) in data set [1] (setting [6]) and in data set [2] (setting [7]) were 1020 µM and 871 µM, respectively.
On to `NC[C@H](O)c1ccc(O)c(O)c1` [norepinephrine, reference compound], for which the “control tension as percent of the maximum inducible contraction” value in data set [1] (10^-7 M norepinephrine) is listed as 85.1%. The control tension generated in data set [1] (10^-7 M norepinephrine, rat aortic strip) amounted to 0.98 ± 0.03 g.
Regarding `CCC[C@H]1Cc2cc3c(cc2[C@@H]1N(C)C)OCO3` (relative stereo) [trans sat-pr-MDI, 2-propyl-5,6-methylenedioxyindane-1-dimethylammonium chloride], the results for the concentration for half-maximal inhibition (IC50) in data set [1] (Rattus norvegicus) and in data set [2] (Rattus norvegicus) were 383 µM and 98.9 µM, respectively.
Take `CCC[C@@H]1Cc2cc3c(cc2[C@@H]1N(C)C)OCO3` (relative stereo) [cis sat-pr-MDI, 2-propyl-5,6-methylenedioxyindane-1-dimethylammonium chloride]: the IC50 in data set [1] (Rattus norvegicus) is 59.4 µM; in data set [2] (Rattus norvegicus) it was 30 µM. For the same compound, the “comparative vasodilator activity, norepinephrine-treated tissue” value in data set [1] is “substantially the same activity as the corresponding unsaturated propyl compound of Formula I”. Moreover, the “comparative vasodilator activity, potassium chloride-treated tissue” value in data set [2] is “slightly lower activity”.
On to `C=C[C@H]1C[N@@]2CC[C@H]1C[C@@H]2[C@@H](O)c1ccnc2ccc(OC)cc12` [quinidine, reference compound], for which the “effect on the S wave” value in data set [3] (8 mg/kg (minimum effective concentration)) is recorded as “severely deepened the S wave”. Further, the ED50 in data set [4] (Mus musculus, ip, 10 min, n = 40, read-out: ED50) stood at 67 mg/kg.
`[Cl-].[K+]` [potassium chloride, reference compound]: the “control tension as percent of the maximum inducible contraction” value in data set [2] (40 mM potassium chloride) came out at 84.2%. In data set [2] (40 mM potassium chloride, rat aortic strip), this compound displayed a control tension generated of 0.89 ± 0.05 g.
